From the supplement of paper PMC10307832

How the values were obtained:
Test in all cases: relative viability (nuclei count vs DMSO), 5 days (fraction); higher = more cells survive
[1] = compound: O=C(/C=C/c1cccnc1)NCCCCC1CCN(C(=O)c2ccccc2)CC1 [Daporinad] + CC(=O)Nc1cccc(-n2c(=O)n(C3CC3)c(=O)c3c(Nc4ccc(I)cc4F)n(C)c(=O)c(C)c32)c1 [Trametinib] (partner 0.02 µM)
Method in brief: (§1)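 Medians of duplicate plates are given as relative viability. That measure is the nuclei count in treated wells divided by the count in vehicle wells. Counts were taken on 4× images of lung cancer cell lines in 1536-well plates, 5 days after pin-tool dosing the day after seeding with one drug alone or a fixed anchor-drug dose plus five library-drug doses (not always all listed) in √10 steps.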

[2] = compound: COc1cc(Nc2ncc(F)c(Nc3ccc4c(n3)NC(=O)C(C)(C)O4)n2)cc(OC)c1OC [R406] + C[C@@H](Oc1cc(-c2cnn(C3CCNCC3)c2)cnc1N)c1c(Cl)ccc(F)c1Cl [Crizotinib] (partner 1 µM)
Method in brief: as §1

[3] = compound: O=C(/C=C/c1cccnc1)NCCCCC1CCN(C(=O)c2ccccc2)CC1 [Daporinad] + Nc1ncn([C@H]2C[C@H](O)[C@@H](CO)O2)c(=O)n1 [Decitabine] (partner 2 µM)
Method in brief: as §1

[4] = compound: O=C(/C=C/c1cccnc1)NCCCCC1CCN(C(=O)c2ccccc2)CC1 [Daporinad] + Cc1cc(Nc2cc(N3CCN(C)CC3)nc(Sc3ccc(NC(=O)C4CC4)cc3)n2)n[nH]1 [Tozasertib] (partner 0.1 µM)
Method in brief: as §1

## UMC-11
[1]; first compound 0.0005 µM
  relative viability: 0.645
[1]; first compound 0.001581 µM
  relative viability: 0.926
[1]; first compound 0.005 µM
  relative viability: 0.775
[1]; first compound 0.01581 µM
  relative viability: 1.14
[2]; first compound 0.08 µM
  relative viability: 0.628
[2]; first compound 0.253 µM
  relative viability: 0.88
[2]; first compound 0.8 µM
  relative viability: 0.663
[2]; first compound 2.53 µM
  relative viability: 0.392
[2]; first compound 8 µM
  relative viability: 0.119
[3]; first compound 0.0005 µM
  relative viability: 0.558
[3]; first compound 0.001581 µM
  relative viability: 0.813
[3]; first compound 0.005 µM
  relative viability: 0.625
[3]; first compound 0.01581 µM
  relative viability: 0.54
[4]; first compound 0.0005 µM
  relative viability: 0.21
[4]; first compound 0.001581 µM
  relative viability: 0.208
[4]; first compound 0.005 µM
  relative viability: 0.207
[4]; first compound 0.01581 µM
  relative viability: 0.2
